One data set addresses serotonin reuptake (Homo sapiens, UniProt P31645). The note with it: from U.S. Pat. No. 6,720,320 / Minerva Form 10K, cited from earlier work.
For data set [1], the target named is T1, 5-HT1A receptor (Homo sapiens, UniProt P08908).
T1 sequence (P08908 1-422): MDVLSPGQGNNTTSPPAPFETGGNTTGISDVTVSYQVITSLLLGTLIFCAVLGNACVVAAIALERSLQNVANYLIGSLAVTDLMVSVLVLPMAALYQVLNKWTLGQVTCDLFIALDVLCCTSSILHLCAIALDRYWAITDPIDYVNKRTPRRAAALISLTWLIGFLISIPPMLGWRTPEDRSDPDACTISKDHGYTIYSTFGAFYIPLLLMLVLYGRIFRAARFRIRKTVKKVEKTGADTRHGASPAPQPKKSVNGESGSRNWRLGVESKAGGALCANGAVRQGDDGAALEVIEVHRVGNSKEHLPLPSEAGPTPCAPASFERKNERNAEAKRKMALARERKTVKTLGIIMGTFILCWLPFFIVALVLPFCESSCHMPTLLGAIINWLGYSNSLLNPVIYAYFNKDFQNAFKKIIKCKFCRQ
The note with it: from U.S. Pat. No. 6,720,320 / Minerva Form 10K, cited from earlier work.

For a further data set, the system named is adult subjects with MDD. In words: Phase 2a randomized, double-blind, placebo- and active-controlled study; anxiety by HAM-A over 6 weeks. It is filed as in vivo, human. The note with it: for speed of onset of the reduction in total HAM-A score: 0.5 mg dose compared with the 2.5 mg dose and other arms, Week 1 vs. Week 2; for reduction in severity of anxiety symptoms compared to placebo (change from baseline in total HAM-A score): MDD patients, ITT, once daily oral 0.5 mg or 2.5 mg, 6 weeks of treatment. On the procedure:
In an embodiment, the effect of the treatment is measured using the Hamilton Anxiety Scale (HAM-A). The subject is asked to rate the gravity of each item using a 5-level scale—from 0 to 4, where 0 being not present and 4 being severe. The results are then collated and tabulated to determine the severity of anxiety: a HAM-A score of <17 is mild anxiety, HAM-A score of 18-24 is mild to moderate anxiety, and HAM-A score of 25-30 is moderate to severe anxiety.
A phase 2a, multicenter, multinational, randomized, double-blind, placebo- and active-controlled parallel-group study was conducted to investigate the efficacy and safety of MIN-117 in adult subjects with MDD. One of the exploratory objectives of the study was to assess effects of MIN-117 compared to placebo on anxiety as measured by change from baseline in the Hamilton Anxiety Rating Scale (HAM-A) over 6 weeks of treatment.
The study consisted of a 4-week pre-treatment phase during which subjects were washed out from antidepressant medications or other psychotropics, followed by a 6-week treatment phase, and then an end of study (EOS) follow-up visit at approximately 2-weeks after the end of the treatment phase. MIN-117 capsules of 0.5 mg and 2.5 mg strength were used in the study. The capsules were size 4 made of white hard gelatin containing the drug substance, lactose, cornstarch, low substituted hydroxypropylcelullose and hydroxypropylcelullose, and purified water.
Eighty-four eligible subjects (met the DSM-5 diagnostic criteria for moderate to severe MDD, without psychotic features) were randomized in a 1:1:1:1 ratio, to receive once daily oral doses of placebo, MIN-117 at 0.5 mg, MIN-117 at 2.5 mg, or paroxetine at 20 mg as an active comparator for 6 weeks. Paroxetine is an antidepressant of the SSRI class and is used to treat MDD, OCD, PTSD, social anxiety disorder, panic disorder, GAD, premenstrual dysphoric disorder and menopausal hot flashes. The HAM-A scale was used to measure the severity of each subject's anxiety at screening, baseline, and weeks 1, 2, 4, 6 (or early withdrawal) and EOS.
Subjects had to meet all of the following inclusion criteria to be eligible for participation in this study: • 1. Subjects must be able to read and understand the consent forms, complete study-related procedures, and communicate with the study staff. • 2. Subjects must have provided written consent to participate in the study and understand that they are free to withdraw from the study at any time. • 3. Male or female subjects must be 18 to 65 years of age, inclusive, at Screening (Visit 1). • 4. Subjects have a body mass index (BMI) of ≥18 to ≤35 kg/m^2 [BMI=weight (kg)/height (m^2)] at Screening (Visit 1) • 5. Subjects must meet Diagnostic and Statistical Manual of Mental Disorders—Fifth Edition (DSM-5) criteria for diagnosis of moderate or severe depression without psychotic features (ICD-9 codes 296.32 & 296.33; ICD-10 codes F33.1 & F33.2, respectively) at Screening based on clinical assessment and on the MINI, v7.0. • 6. Subjects have a history of at least one previous episode of depression prior to the current episode. • 7. Current major depressive episode of at least 8 weeks in duration. • 8. Subjects must have a score of ≥30 on the investigator-rated MADRS at Screening (Visit 1) and Baseline (Visit 2a). • 9. Subjects must have a score of ≥4 on the investigator-rated CGI-S at Screening (Visit 1) and Baseline (Visit 2a). • 10. Subjects must be in good general health prior to study participation with no clinically relevant abnormalities as assessed by the investigator and determined by medical history, physical examination, blood chemistry, hematology, urinalysis, and electrocardiogram (ECG). • 11. […] Male subjects who are willing to use condom for the duration of the study and until 90 days after the last dose of the study, even if they have had vasectomy, and must inform their partners about taking an investigational medication. […]

The next data set concerns the target T2, α1A-adrenergic receptor (Homo sapiens, UniProt P35348).
T2 sequence (P35348 1-466): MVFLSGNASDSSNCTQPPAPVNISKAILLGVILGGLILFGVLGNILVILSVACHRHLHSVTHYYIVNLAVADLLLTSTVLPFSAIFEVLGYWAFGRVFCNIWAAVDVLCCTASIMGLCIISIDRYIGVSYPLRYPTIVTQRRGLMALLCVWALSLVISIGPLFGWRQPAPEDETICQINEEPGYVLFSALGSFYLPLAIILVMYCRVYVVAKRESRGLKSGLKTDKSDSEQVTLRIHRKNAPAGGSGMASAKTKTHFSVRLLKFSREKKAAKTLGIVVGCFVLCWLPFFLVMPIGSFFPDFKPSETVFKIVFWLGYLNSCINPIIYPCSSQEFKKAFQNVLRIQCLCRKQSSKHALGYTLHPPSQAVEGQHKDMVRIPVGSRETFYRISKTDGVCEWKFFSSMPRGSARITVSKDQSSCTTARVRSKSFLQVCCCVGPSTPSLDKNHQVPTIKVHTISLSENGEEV
As to conditions: Minerva Form 10K, 14 Mar. 2016; cited from earlier work.

The target of another data set is dopamine reuptake (Homo sapiens, UniProt Q01959). The note with it: Minerva Form 10K, 14 Mar. 2016; cited from earlier work.
In the next data set the target is 5-HT2A receptors (Homo sapiens, UniProt P28223). The note with it: Minerva Form 10K, 14 Mar. 2016; cited from earlier work.
A further data set deals with T3, α1B-adrenergic receptor (Homo sapiens, UniProt P35368).
T3 sequence (P35368 1-520): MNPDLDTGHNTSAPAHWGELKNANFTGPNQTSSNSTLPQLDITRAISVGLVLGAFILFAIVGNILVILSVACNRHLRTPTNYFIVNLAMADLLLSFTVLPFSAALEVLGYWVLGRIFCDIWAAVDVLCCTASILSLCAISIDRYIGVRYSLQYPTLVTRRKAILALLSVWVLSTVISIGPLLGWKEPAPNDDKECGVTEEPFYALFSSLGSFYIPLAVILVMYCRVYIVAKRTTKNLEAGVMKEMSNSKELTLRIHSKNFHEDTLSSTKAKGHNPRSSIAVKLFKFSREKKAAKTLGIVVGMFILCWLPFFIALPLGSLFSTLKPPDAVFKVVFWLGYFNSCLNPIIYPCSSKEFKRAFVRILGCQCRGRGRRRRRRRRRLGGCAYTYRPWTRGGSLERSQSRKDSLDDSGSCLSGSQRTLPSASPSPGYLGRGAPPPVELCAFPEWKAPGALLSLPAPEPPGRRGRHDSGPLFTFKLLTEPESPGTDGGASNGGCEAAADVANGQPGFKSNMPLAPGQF
The note with it: Minerva Form 10K, 14 Mar. 2016; cited from earlier work.

Data set [2] has as its target T1, 5-HT1A receptor. As to conditions: in vitro; disclosed in U.S. Pat. No. 6,720,320; cited from earlier work.

Entries after “also recorded” stand apart in the source; their conditions may differ. Structures can show the parent of a compound that is named as a salt. Where two headings read alike, the source gives them in different places.

The values below come from US20250228837A1, “(2S)-1-[4-(3,4-DICHLOROPHENYL)PIPERIDIN-1-YL]-3-[2-(5-METHYL-1,3,4-OXADIAZOL-2-YL)BENZO[B]FURAN-4-YLOXY] PROPAN-2-OL OR ITS METABOLITE FOR TREATING ANXIETY DISORDERS” (Minerva Neurosciences, Inc., priority 2016, published 2025).

Sequence of serotonin reuptake (P31645 whole entry): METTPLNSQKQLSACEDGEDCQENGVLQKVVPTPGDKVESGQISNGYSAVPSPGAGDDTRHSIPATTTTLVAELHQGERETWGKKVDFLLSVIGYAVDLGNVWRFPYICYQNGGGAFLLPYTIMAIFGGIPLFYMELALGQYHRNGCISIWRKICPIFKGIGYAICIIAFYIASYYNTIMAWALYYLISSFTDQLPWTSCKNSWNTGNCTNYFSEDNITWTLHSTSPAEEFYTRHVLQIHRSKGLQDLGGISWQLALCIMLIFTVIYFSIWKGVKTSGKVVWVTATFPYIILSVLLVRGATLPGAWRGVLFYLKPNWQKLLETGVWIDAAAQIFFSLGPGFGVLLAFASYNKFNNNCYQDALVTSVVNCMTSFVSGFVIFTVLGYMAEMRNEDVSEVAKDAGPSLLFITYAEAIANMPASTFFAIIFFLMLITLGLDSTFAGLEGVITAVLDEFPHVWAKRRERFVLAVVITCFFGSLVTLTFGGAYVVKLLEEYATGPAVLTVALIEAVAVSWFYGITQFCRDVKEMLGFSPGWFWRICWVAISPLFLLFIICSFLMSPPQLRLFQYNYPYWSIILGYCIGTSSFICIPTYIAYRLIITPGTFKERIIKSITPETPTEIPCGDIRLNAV
Sequence of dopamine reuptake (Q01959 whole entry): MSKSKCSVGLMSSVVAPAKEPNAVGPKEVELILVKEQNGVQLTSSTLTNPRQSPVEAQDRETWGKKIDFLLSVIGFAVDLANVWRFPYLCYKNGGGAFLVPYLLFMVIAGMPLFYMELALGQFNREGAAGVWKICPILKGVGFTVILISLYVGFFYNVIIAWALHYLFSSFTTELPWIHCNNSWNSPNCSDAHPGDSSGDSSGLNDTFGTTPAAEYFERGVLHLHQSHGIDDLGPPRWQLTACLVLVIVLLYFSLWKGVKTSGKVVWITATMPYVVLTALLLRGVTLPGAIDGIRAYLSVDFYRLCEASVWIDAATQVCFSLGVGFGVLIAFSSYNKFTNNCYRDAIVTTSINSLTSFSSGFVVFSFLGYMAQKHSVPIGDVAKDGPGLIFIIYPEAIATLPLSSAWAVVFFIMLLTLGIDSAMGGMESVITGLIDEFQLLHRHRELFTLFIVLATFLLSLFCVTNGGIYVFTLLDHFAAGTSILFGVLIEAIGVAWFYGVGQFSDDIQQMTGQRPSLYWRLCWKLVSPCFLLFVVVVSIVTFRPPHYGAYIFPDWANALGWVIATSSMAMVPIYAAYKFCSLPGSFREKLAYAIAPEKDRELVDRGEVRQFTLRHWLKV
Sequence of 5-HT2A receptors (P28223 whole entry): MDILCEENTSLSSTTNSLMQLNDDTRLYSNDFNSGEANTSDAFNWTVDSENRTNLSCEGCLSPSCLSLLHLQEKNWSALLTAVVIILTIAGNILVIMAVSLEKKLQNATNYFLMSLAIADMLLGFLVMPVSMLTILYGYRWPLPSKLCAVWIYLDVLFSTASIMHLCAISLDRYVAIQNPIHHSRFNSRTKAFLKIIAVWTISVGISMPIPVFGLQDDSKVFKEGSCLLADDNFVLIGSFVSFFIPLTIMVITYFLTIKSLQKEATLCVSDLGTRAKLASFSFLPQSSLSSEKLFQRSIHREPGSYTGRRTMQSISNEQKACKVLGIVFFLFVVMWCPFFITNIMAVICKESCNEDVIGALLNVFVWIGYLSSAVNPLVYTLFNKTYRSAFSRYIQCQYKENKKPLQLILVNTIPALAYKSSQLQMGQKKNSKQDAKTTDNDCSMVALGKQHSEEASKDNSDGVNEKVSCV

In the case of `Cc1nnc(-c2cc3c(OC[C@@H](O)CN4CCC(c5ccc(Cl)c(Cl)c5)CC4)cccc3o2)o1` [MIN-117, (2S)-1-[4-(3,4-dichlorophenyl)piperidin-1-yl]-3-[2-(5-methyl-1,3,4-oxadiazol-2-yl)benzo[b]furan-4-yloxy]propan-2-ol monohydrochloride], the “activity on serotonin (5-HT) reuptake” value at serotonin reuptake (monohydrochloride) was “antagonist”. In addition, the “activity at the 5-HT1A receptor” value at 5-HT1A receptor [1] (monohydrochloride) is “antagonist”. In the data set with adult subjects with MDD (monohydrochloride), the “speed of onset of the reduction in total HAM-A score” value is given as “fastest onset” and the “reduction in severity of anxiety symptoms compared to placebo (change from baseline in total HAM-A score)” value is recorded as “reduces anxiety symptoms; also recorded: capable of reducing the severity of one or more anxiety symptoms”. Moreover, the “time after starting therapy to a beneficial result over placebo” value in the data set with adult subjects with MDD (0.5 mg total daily dose) is given as 2 weeks. Moreover, the tolerability result with adult subjects with MDD (both doses (0.5 mg and 2.5 mg once daily, 6 weeks)) is recorded as “well tolerated”. Also, the “ability of both doses to reduce severity of symptoms, 0.5 mg vs 2.5 mg” value in the data set on adult subjects with MDD (by Week 6) is recorded as “comparable”. Besides, at α1A-adrenergic receptor, the “affinity for the α1A-adrenergic receptor” value was “having affinity”. Also, the “activity on dopamine reuptake” value at dopamine reuptake was “antagonist”. For the same compound, the “activity at the 5-HT2A receptor” value at 5-HT2A receptors is reported as “antagonist”. On α1B-adrenergic receptor, the “affinity for the α1B-adrenergic receptor” value was “having affinity”.

Consider `Cc1nnc(-c2cc3c(OC[C@@H](O)CN4CCC(c5ccc(Cl)c(Cl)c5)CC4)cccc3o2)o1` [Compound I, (2S)-1-[4-(3,4-dichlorophenyl)piperidin-1-yl]-3-[2-(5-methyl-1,3,4-oxadiazol-2-yl)benzo[b]furan-4-yloxy]propan-2-ol], for which the “activity on serotonin (5-HT) reuptake” value at serotonin reuptake is listed as 5-HT reuptake inhibitory activity. At 5-HT1A receptor [2], the “affinity for the 5-HT1A receptor” value is “selective affinity”. Also, the “activity at the 5-HT1A receptor” value at 5-HT1A receptor [1] is reported as “antagonistic activity”. Further, in the data set on adult subjects with MDD, the “speed of onset of the reduction in total HAM-A score” value is “more rapid reduction” and the “reduction in severity of anxiety symptoms compared to placebo (change from baseline in total HAM-A score)” value was “reduced anxiety symptoms compared to placebo; also recorded: capable of reducing the severity of one or more anxiety symptoms”.

Consider `OCc1nnc(-c2cc3c(OC[C@@H](O)CN4CCC(c5ccc(Cl)c(Cl)c5)CC4)cccc3o2)o1` [Compound II, (2S)-1-[4-(3,4-dichlorophenyl)piperidin-1-yl]-3-[2-(5-hydroxymethyl-1,3,4-oxadiazol-2-yl)benzo[b]furan-4-yloxy]propan-2-ol], for which the “activity on serotonin (5-HT) reuptake” value at serotonin reuptake is 5-HT reuptake inhibitory activity. Further, the “affinity for the 5-HT1A receptor” value at 5-HT1A receptor [2] was “selective affinity”. For the same compound, the “activity at the 5-HT1A receptor” value on 5-HT1A receptor [1] was “antagonistic activity”.
